Laboratory results as given in ChEMBL document CHEMBL2413072, “Synthesis and in vitro anticancer studies of novel C-2 arylidene congeners of lantadenes” (2013).

Key:
Assay type in all cases: functional
786-0 [1] = test: Growth inhibition of human 786-0 cells assessed as cell growth at 10^-7 M by sulforhodamine B assay; details: read-out: Activity
786-0 [2] = test: Growth inhibition of human 786-0 cells assessed as cell growth at 10^-4 M by sulforhodamine B assay; details: read-out: Activity
KM12 = test: Growth inhibition of human KM12 cells by sulforhodamine B assay
SW-620 [3] = test: Growth inhibition of human SW620 cells assessed as cell growth at 10^-6 M by sulforhodamine B assay; details: read-out: Activity
NCI-H322M [4] = test: Growth inhibition of human NCI-H322M cells by sulforhodamine B assay
MDA-MB-468 = test: Growth inhibition of human MDA-MB-468 cells assessed as cell growth at 10^-6 M by sulforhodamine B assay; details: read-out: Activity
MOLT-4 = test: Growth inhibition of human MOLT4 cells assessed as cell growth at 10^-8 M by sulforhodamine B assay; details: read-out: Activity
HOP-62 = test: Growth inhibition of human HOP62 cells by sulforhodamine B assay
TK-10 [5] = test: Growth inhibition of human TK10 cells assessed as cell growth at 10^-4 M by sulforhodamine B assay; details: read-out: Activity
A549 [6] = test: Growth inhibition of human A549/ATCC cells assessed as cell growth at 10^-6 M by sulforhodamine B assay; details: read-out: Activity
K562 [7] = test: Growth inhibition of human K562 cells by sulforhodamine B assay
IGROV-1 [8] = test: Growth inhibition of human IGROV1 cells assessed as cell growth at 10^-4 M by sulforhodamine B assay; details: read-out: Activity
OVCAR-4 = test: Growth inhibition of human OVCAR4 cells assessed as cell growth at 10^-6 M by sulforhodamine B assay; details: read-out: Activity
HCT-15 = test: Growth inhibition of human HCT15 cells assessed as cell growth at 10^-7 M by sulforhodamine B assay; details: read-out: Activity
K562 [9] = test: Growth inhibition of human K562 cells assessed as cell growth at 10^-7 M by sulforhodamine B assay; details: read-out: Activity
IGROV-1 [10] = test: Growth inhibition of human IGROV1 cells by sulforhodamine B assay
HCT-116 = test: Growth inhibition of human HCT116 cells assessed as cell growth at 10^-4 M by sulforhodamine B assay; details: read-out: Activity
NCI-H322M [11] = test: Growth inhibition of human NCI-H322M cells assessed as cell growth at 10^-4 M by sulforhodamine B assay; details: read-out: Activity
[12] = Growth inhibition of human NCI-ADR-RES cells by sulforhodamine B assay
PC-3 = test: Growth inhibition of human PC3 cells assessed as cell growth at 10^-7 M by sulforhodamine B assay; details: read-out: Activity
SW-620 [13] = test: Growth inhibition of human SW620 cells by sulforhodamine B assay
NCI-H460 [14] = test: Growth inhibition of human NCI-H460 cells assessed as cell growth at 10^-8 M by sulforhodamine B assay; details: read-out: Activity
SNB-19 = test: Growth inhibition of human SNB19 cells assessed as cell growth at 10^-6 M by sulforhodamine B assay; details: read-out: Activity
UACC-62 [15] = test: Growth inhibition of human UACC62 cells assessed as cell growth at 10^-4 M by sulforhodamine B assay; details: read-out: Activity
SK-MEL-2 = test: Growth inhibition of human SK-MEL-2 cells by sulforhodamine B assay
A549 [16] = test: Growth inhibition of human A549/ATCC cells assessed as cell growth at 10^-8 M by sulforhodamine B assay; details: read-out: Activity
[17] = Growth inhibition of human Hs 578T cells assessed as cell growth at 10^-8 M by sulforhodamine B assay; details: read-out: Activity
HOP-92 [18] = test: Growth inhibition of human HOP92 cells by sulforhodamine B assay
NCI-H460 [19] = test: Growth inhibition of human NCI-H460 cells assessed as cell growth at 10^-7 M by sulforhodamine B assay; details: read-out: Activity
NCI-H522 = test: Growth inhibition of human NCI-H522 cells assessed as cell growth at 10^-8 M by sulforhodamine B assay; details: read-out: Activity
SK-OV-3 = test: Growth inhibition of human SKOV3 cells by sulforhodamine B assay
HOP-92 [20] = test: Growth inhibition of human HOP92 cells assessed as cell growth at 10^-7 M by sulforhodamine B assay; details: read-out: Activity
CAKI-1 = test: Growth inhibition of human CAKI-1 cells assessed as cell growth at 10^-8 M by sulforhodamine B assay; details: read-out: Activity
HT-29 = test: Growth inhibition of human HT-29 cells assessed as cell growth at 10^-6 M by sulforhodamine B assay; details: read-out: Activity
TK-10 [21] = test: Growth inhibition of human TK10 cells assessed as cell growth at 10^-8 M by sulforhodamine B assay; details: read-out: Activity
UACC-62 [22] = test: Growth inhibition of human UACC62 cells assessed as cell growth at 10^-8 M by sulforhodamine B assay; details: read-out: Activity
[23] = Growth inhibition of human NCI-ADR-RES cells assessed as cell growth at 10^-6 M by sulforhodamine B assay; details: read-out: Activity
SW-620 [24] = test: Growth inhibition of human SW620 cells assessed as cell growth at 10^-8 M by sulforhodamine B assay; details: read-out: Activity
[25] = read-out: LC50 (the source's name)
[26] = read-out: pLC50 (the source's name) (converted)

SMILES: CC(C)=CC(=O)O[C@@H]1CC(C)(C)C[C@H]2C3=CC[C@@H]4[C@@]5(C)CC[C@H](O)C(C)(C)[C@@H]5CC[C@@]4(C)[C@]3(C)CC[C@@]12C(=O)O [Reduced Lantadene B]
- growth at 0.1 µM (786-0 [1]): 96%
- growth at 100 µM (786-0 [2]): -73%
- GI50 (KM12; read-out: GI50): 862 nM
- LC50 (50% net cell kill) (KM12; read-out: LC50): > 100 µM
- TGI (KM12; read-out: TGI): 19.6 µM
- GI50 (KM12; read-out: pGI50 (converted)): 871 nM
- LC50 (50% net cell kill) (KM12; read-out: pLC50 (converted)): > 100 µM
- TGI (KM12; read-out: pTGI (converted)): 19.5 µM
- growth at 1 µM (SW-620 [3]): 87%
- GI50 (NCI-H322M [4]; read-out: GI50): 3.62 µM
- LC50 (50% lethal concentration) (NCI-H322M [4]; read-out: LC50): 58 µM
- TGI (NCI-H322M [4]; read-out: TGI): 15 µM
- GI50 (NCI-H322M [4]; read-out: pGI50 (converted)): 3.63 µM
- LC50 (50% lethal concentration) (NCI-H322M [4]; read-out: pLC50 (converted)): 57.5 µM
- TGI (NCI-H322M [4]; read-out: pTGI (converted)): 15.1 µM
- growth at 1 µM (MDA-MB-468): 77%
- growth at 0.01 µM (MOLT-4): 106%
- GI50 (HOP-62; read-out: GI50): 7.47 µM
- LC50 (concentration killing 50% of cells) (HOP-62; read-out: LC50): 79.8 µM
- TGI (HOP-62; read-out: TGI): 26.6 µM
- GI50 (HOP-62; read-out: pGI50 (converted)): 7.41 µM
- LC50 (concentration killing 50% of cells) (HOP-62; read-out: pLC50 (converted)): 79.4 µM
- TGI (HOP-62; read-out: pTGI (converted)): 26.3 µM
- growth at 100 µM (TK-10 [5]): -68%
- growth at 1 µM (A549 [6]): 34%
- GI50 (K562 [7]; read-out: GI50): 3.38 µM
- LC50 (K562 [7]; read-out: LC50): > 100 µM
- TGI (K562 [7]; read-out: TGI): 93.1 µM
- GI50 (K562 [7]; read-out: pGI50 (converted)): 3.39 µM
- LC50 (K562 [7]; read-out: pLC50 (converted)): > 100 µM
- TGI (K562 [7]; read-out: pTGI (converted)): 93.3 µM
- growth at 100 µM (IGROV-1 [8]): -43%
- growth at 1 µM (OVCAR-4): 83%
- growth at 0.1 µM (HCT-15): 87%
- growth at 0.1 µM (K562 [9]): 91%
- GI50 (IGROV-1 [10]; read-out: GI50): 6.35 µM
- CC50 (IGROV-1 [10]; [25]): > 100 µM
- TGI (IGROV-1 [10]; read-out: TGI): 29.4 µM
- GI50 (IGROV-1 [10]; read-out: pGI50 (converted)): 6.31 µM
- CC50 (IGROV-1 [10]; [26]): > 100 µM
- TGI (IGROV-1 [10]; read-out: pTGI (converted)): 29.5 µM
- growth at 100 µM (HCT-116): -80%
- growth at 100 µM (NCI-H322M [11]): -70%
- GI50 ([12]; read-out: GI50): 5.83 µM
- CC50 [12, 25]: > 100 µM
- TGI ([12]; read-out: TGI): 35.9 µM
- GI50 ([12]; read-out: pGI50 (converted)): 5.89 µM
- CC50 [12, 26]: > 100 µM
- TGI ([12]; read-out: pTGI (converted)): 36.3 µM
- growth at 0.1 µM (PC-3): 90%
- GI50 (SW-620 [13]; read-out: GI50): 5.69 µM
- CC50 (SW-620 [13]; [25]): > 100 µM
- TGI (SW-620 [13]; read-out: TGI): 52.6 µM
- GI50 (SW-620 [13]; read-out: pGI50 (converted)): 5.75 µM
- CC50 (SW-620 [13]; [26]): > 100 µM
- TGI (SW-620 [13]; read-out: pTGI (converted)): 52.5 µM
- growth at 0.01 µM (NCI-H460 [14]): 105%
- growth at 1 µM (SNB-19): 86%
- growth at 100 µM (UACC-62 [15]): -81%
- GI50 (SK-MEL-2; read-out: GI50): 9.34 µM
- CC50 (SK-MEL-2; [25]): 67 µM
- TGI (SK-MEL-2; read-out: TGI): 25.4 µM
- GI50 (SK-MEL-2; read-out: pGI50 (converted)): 9.33 µM
- CC50 (SK-MEL-2; [26]): 67.6 µM
- TGI (SK-MEL-2; read-out: pTGI (converted)): 25.7 µM
- growth at 0.01 µM (A549 [16]): 91%
- growth at 0.01 µM [17]: 96%
- GI50 (HOP-92 [18]; read-out: GI50): 1510 nM
- CC50 (HOP-92 [18]; [25]): 16.3 µM
- TGI (HOP-92 [18]; read-out: TGI): 4.23 µM
- GI50 (HOP-92 [18]; read-out: pGI50 (converted)): 1510 nM
- CC50 (HOP-92 [18]; [26]): 16.2 µM
- TGI (HOP-92 [18]; read-out: pTGI (converted)): 4.27 µM
- growth at 0.1 µM (NCI-H460 [19]): 100%
- growth at 0.01 µM (NCI-H522): 92%
- GI50 (SK-OV-3; read-out: GI50): 12.8 µM
- CC50 (SK-OV-3; [25]): 80.2 µM
- TGI (SK-OV-3; read-out: TGI): 32 µM
- GI50 (SK-OV-3; read-out: pGI50 (converted)): 12.9 µM
- CC50 (SK-OV-3; [26]): 79.4 µM
- TGI (SK-OV-3; read-out: pTGI (converted)): 32.4 µM
- growth at 0.1 µM (HOP-92 [20]): 87%
- growth at 0.01 µM (CAKI-1): 97%
- growth at 1 µM (HT-29): 89%
- growth at 0.01 µM (TK-10 [21]): 92%
- growth at 0.01 µM (UACC-62 [22]): 94%
- growth at 1 µM [23]: 90%
- growth at 0.01 µM (SW-620 [24]): 102%
